Measurements taken from patent US20250382322A1, “DIAGNOSTICS FOR DETECTING ECTO-5'-NUCLEOTIDASE (CD73)” (EBERHARD KARLS UNIVERSITÄT TÜBINGEN, priority 2022, published 2025).

What was measured:
human NTPDase8 = target: T1, human NTPDase8 (Homo sapiens, UniProt Q5MY95); experiment: Capillary electrophoresis assay for human NTPDase8; assay type: biochemical; conditions: ATP (100 μM) as substrate
T1 sequence (Q5MY95 1-495): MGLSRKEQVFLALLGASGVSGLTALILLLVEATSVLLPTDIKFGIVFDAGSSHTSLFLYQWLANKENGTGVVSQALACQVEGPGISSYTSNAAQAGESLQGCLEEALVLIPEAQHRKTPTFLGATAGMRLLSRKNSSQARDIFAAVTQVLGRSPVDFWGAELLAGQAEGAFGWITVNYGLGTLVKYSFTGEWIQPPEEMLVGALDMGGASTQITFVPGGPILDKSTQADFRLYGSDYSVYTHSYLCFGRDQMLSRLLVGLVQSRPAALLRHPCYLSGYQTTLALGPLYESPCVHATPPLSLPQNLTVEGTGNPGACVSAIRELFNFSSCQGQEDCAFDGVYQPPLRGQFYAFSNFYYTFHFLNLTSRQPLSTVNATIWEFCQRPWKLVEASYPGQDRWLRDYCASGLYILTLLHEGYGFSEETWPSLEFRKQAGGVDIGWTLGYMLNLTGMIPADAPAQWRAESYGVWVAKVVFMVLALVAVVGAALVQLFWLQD
Method: (§1) Inhibitory activity of the CD73 inhibitors 2 and 20 at human NTPDases 1, 2, 3, and 8 was investigated using ATP (100 μM) as a substrate according to previously published procedures.^24 ATP and 2 were co-incubated with recombinantly expressed human NTPDases at 37° C. for 30 min, and the enzymatic reaction was terminated by heating at 90° C. for 10 min. The amount of enzyme preparation was adjusted to ensure 10-20% of substrate conversion. The formed products were separated by capillary electrophoresis (CE) and individually quantitated by diode array detection (DAD) at a wavelength of 260 nm. For inhibition analysis, at least three independent experiments were performed each in triplicate. The inhibition of the enzyme activity was calculated in relation to the positive control without inhibitor and plotted by GraphPad Prism 8 software (GraphPad software, San Diego, CA, USA) (for results see Table 2 and Table 3).
(§2) Test compounds were investigated at a concentration of 50 μM, and 100 μM ATP substrate according to published procedures.^24 Recombinantly expressed human NTPDases were employed. The amount of enzyme preparation was adjusted to ensure 10-20% of substrate conversion. […] The inhibition of the enzyme activity was calculated in relation to the positive control without inhibitor and plotted in GraphPad Prism 8 software (GraphPad software, San Diego, CA, USA). […]

human NTPDase2 = target: T2, human NTPDase2 (Homo sapiens, UniProt Q9Y5L3); experiment: Capillary electrophoresis assay for human NTPDase2; assay type: biochemical; conditions: ATP (100 μM) as substrate
T2 sequence (Q9Y5L3 1-495): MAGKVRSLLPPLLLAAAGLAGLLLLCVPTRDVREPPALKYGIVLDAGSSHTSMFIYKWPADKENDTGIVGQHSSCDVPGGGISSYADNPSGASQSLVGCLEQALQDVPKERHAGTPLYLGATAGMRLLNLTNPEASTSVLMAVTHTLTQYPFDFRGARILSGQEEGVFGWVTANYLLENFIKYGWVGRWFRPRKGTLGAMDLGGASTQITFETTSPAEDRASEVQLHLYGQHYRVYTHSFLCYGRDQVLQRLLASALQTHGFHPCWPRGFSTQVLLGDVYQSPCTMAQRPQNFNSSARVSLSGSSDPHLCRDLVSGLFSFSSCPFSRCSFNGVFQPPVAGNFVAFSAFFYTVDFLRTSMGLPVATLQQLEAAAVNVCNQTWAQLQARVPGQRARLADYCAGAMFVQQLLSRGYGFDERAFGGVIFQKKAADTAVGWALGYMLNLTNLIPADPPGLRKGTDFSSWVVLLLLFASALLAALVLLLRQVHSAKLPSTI
Method: as §1, §2

SMILES	IC50 (human NTPDase8)	IC50 (human NTPDase2)
CCCN(Cc1ccc(-c2cn(CCF)nn2)cc1)c1nc(Cl)nc2c1ncn2[C@@H]1O[C@H](COP(=O)(O)CP(=O)(O)O)C(O)C1O (stereo partly shown) [Compound 2]	> 50 µM	> 50 µM
O=C(NCCCCCCNC(=O)c1ccc2c(c1)C1(OC2=O)c2ccc(O)cc2Oc2cc(O)ccc21)c1ccc(CNc2nc(Cl)nc3c2ncn3[C@@H]2O[C@H](COP(=O)(O)CP(=O)(O)O)[C@@H](O)[C@H]2O)cc1 [Compound 20, (((((2R,3S,4R,5R)-5-(2-chloro-6-((4-((6-(3′,6′-dihydroxy-3-oxo-3H-spiro[isobenzofuran-1,9′-xanthene]-6-carboxamido)-hexyl)carbamoyl)benzyl)amino)-9H-purin-9-yl)-3,4-dihydroxytetrahydrofuran-2-yl)methoxy)(hydroxy)phosphoryl)methyl)phosphonic acid]	< 50 µM	< 50 µM
